{"source": "ChEMBL document CHEMBL5233227", "about": "“Allosteric inhibitors of the STAT3 signaling pathway” (Eur J Med Chem, 2020)", "target": "Signal transducer and activator of transcription 3 (Homo sapiens, UniProt P40763)", "sequence (P40763 whole entry)": "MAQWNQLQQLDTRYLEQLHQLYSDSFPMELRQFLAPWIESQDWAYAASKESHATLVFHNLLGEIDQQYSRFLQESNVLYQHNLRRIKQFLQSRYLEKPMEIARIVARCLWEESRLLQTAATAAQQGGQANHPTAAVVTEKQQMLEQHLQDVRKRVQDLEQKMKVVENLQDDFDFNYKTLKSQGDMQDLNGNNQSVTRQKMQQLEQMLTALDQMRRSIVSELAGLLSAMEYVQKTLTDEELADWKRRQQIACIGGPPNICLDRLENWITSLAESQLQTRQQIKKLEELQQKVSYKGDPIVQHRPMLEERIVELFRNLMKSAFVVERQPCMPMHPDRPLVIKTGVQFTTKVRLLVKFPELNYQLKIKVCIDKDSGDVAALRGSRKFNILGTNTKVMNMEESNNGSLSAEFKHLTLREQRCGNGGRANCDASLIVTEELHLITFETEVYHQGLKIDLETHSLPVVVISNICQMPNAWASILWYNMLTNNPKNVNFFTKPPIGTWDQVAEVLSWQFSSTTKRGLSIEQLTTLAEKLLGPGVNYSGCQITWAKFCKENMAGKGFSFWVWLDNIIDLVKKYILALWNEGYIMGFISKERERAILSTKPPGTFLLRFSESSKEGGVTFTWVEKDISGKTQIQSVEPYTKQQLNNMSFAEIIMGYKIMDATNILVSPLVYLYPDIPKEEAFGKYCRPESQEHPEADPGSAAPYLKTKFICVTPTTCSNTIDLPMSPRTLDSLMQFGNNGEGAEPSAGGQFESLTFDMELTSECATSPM", "test": "Inhibition of human STAT3 expressed in human HepG2 cells incubated for 1.5 hrs by luciferase assay", "type": "cell-based"}
{"smiles": "CC(CO)C1OC(=O)C=C2C13OC3CC13COC(=O)C1(C)CC(O)CC23C", "note": "(stereo unspecified)", "values": [{"measurement": "IC50", "value": 200, "unit": "nM"}]}
